Measured values as given in patent US20060205819A1, “Methods of treatment inflammatory bowel with lxr agonists” (priority 2003, published 2006).
Read-outs that look alike come from different tables or passages of the source. Marks after values point to notes of the source that are not given here.

Legend:
LXRβ protein = molecular target: T1, LXRβ protein (Homo sapiens, UniProt P55055); test: LXRβ / SRC-1 peptide fluorescence assay (streptavidin-APC / Europium); type: biochemical; conditions: 1 μM; over a background reading of 10000 fluorescence units
T1 sequence (P55055 1-460): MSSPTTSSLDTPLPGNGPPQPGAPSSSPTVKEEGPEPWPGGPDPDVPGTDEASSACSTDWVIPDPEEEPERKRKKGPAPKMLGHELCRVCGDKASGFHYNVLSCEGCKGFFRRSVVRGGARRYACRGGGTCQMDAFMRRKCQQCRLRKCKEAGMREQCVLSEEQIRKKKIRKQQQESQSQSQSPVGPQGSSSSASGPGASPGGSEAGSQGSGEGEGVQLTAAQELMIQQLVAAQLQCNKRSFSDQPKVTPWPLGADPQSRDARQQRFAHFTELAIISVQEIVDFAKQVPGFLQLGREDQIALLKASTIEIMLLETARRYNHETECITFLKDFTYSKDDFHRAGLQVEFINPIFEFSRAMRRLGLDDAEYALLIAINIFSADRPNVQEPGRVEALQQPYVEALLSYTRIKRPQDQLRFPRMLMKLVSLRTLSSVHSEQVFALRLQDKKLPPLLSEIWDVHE
Experimental: Other LXR agonists may be identified by assays such as those described in the above referenced patent applications, for example, the assays described in Examples 1 and 2 of PCT/US01/27622. Biotinylated LXRβ protein was incubated for 20-25 minutes at a concentration of 25 nM in assay buffer (50 mM KCl, 50 mM Tris-pH8, 0.1 mg/ml FAF-BSA, 10 mM DTT) with equimolar amounts of streptavidin-AlloPhycoCyanin (APC, Molecular Probes). At the same time, the biotinylated peptide comprising amino acids 675-699 of SRC-1 ([…]-CONH2) (SEQ ID NO: 5) at a concentration of 25 nM was incubated in assay buffer with a […] of streptavidin-labelled Europium (Wallac) for 20-25 minutes. After the initial incubations are completed, a 10 molar excess (250 nM) of cold biotin was added to each of the solutions to block the unattached streptavidin reagents. After 20 min at room temp, the solutions were mixed yielding a concentration of 12.5 nM for the dye-labelled LXRβ protein and SRC-1 peptide.
80 μL of the protein/peptide mixture was added to each well of an assay plate containing 20 μL of test compound. […] The plates were incubated at room temp in the dark for 4-12 hours and then counted on a Wallac Victor fluorescent plate reader. In this assay 1 μM 24(S), 25-epoxycholesterol gave a reading of 20000 fluorescence units over a background reading of 10000 fluorescence units. […]

DSS-induced colitis = DSS-induced colitis in mice, disease activity index (DAI) AUC; type: in vivo, BALB/c mice; conditions: for severity of DSS-induced colitis: p.o.; for AUC (0-12 day) / AUC (3-7 day) / AUC (7-10 day) / AUC (10-12 day): DAI curve AUC, 3% DSS mice, mean +/- SE; for inhibition at 3 mg/kg / inhibition at 10 mg/kg / inhibition at 30 mg/kg: Mus musculus, po, vs DSS + vehicle; for inhibition at 3 mg/kg: 3 mg/kg p.o. b.i.d.; for inhibition at 10 mg/kg: 10 mg/kg p.o. b.i.d.; for inhibition at 30 mg/kg: 30 mg/kg p.o. b.i.d.
Experimental: Female, 10-week-old BALB/c mice (Charles River Japan) were used in this study. Colitis was induced by providing drinking water containing 3% dextran sulfate sodium (DSS, ICN Biomedicals Inc., M.W.=36,000-50,000) for 5 days. The administration of DSS was discontinued on day 5, and mice were given tap water alone for 7 days until on day 12.
The disease activity index (DAI) was determined in all animals, by scoring body weight, stool consistency and rectal bleeding as described by Murthy, S. N. S. (Digestive Diseases and Sciences, 38(9) p. 1722-1734(1993)). Severity of colitis was evaluated by area under the curve (AUC) calculated based on DAI curve ranged from day 3 to day 7 (AUC (3-7 day)), from day 7 to day 10 (AUC (7-10 day)), from day 10 to day 12 (AUC (10-12 day)) and from day 0 to day 12 (AUC (0-12 day)).
Ten mice were used in each group. Compound IIa and Compound Ia were suspended in 0.5% methylcellulose (MC) solution. Compound IIa 3 or 10 or 30 mg/kg or its vehicle (0.5% MC solution) was administered orally twice a day for 12 days from day 0. Compound Ia at 50 mg/kg was administered orally once a day for 12 days from day 0. The experimental groups were set up as follows:
• 3% DSS+vehicle (0.5% MC solution) 3% DSS+Compound IIa (3 mg/kg) 3% DSS+Compound IIa (10 mg/kg) 3% DSS+Compound IIa (30 mg/kg) 3% DSS+Compound Ia (50 mg/kg) * Mice which received tap water without DSS.

[1] = read-out: Inhibition (%) of AUC (0-12 day)
[2] = read-out: Inhibition (%) of AUC (3-7 day)
[3] = read-out: Inhibition (%) of AUC (7-10 day)
[4] = read-out: Inhibition (%) of AUC (10-12 day)

Compound `C[C@H](CC[C@@H]1OC1(C)C)[C@H]1CC[C@H]2[C@@H]3CC=C4C[C@@H](O)CC[C@]4(C)[C@H]3CC[C@]12C` [24(S), 25-epoxycholesterol] has a reading (LXRβ protein) of 20000 fluorescence units.
For `O=C(O)Cc1cccc(OCCCN(Cc2cccc(C(F)(F)F)c2Cl)CC(c2ccccc2)c2ccccc2)c1` [Compound IIa, 2-(3-{3-[[2-Chloro-3-(trifluoromethyl)benzyl](2,2-diphenylethyl)amino]propoxy}-phenyl)acetic acid], the “severity of DSS-induced colitis” value (DSS-induced colitis; 3, 10 and 30 mg/kg, b.i.d., significantly lower AUC compared with vehicle-treated DSS-fed mice) was “suppressed the severity of DSS-induced colitis”, the “AUC (0-12 day)” value (DSS-induced colitis; 3 mg/kg p.o. b.i.d. 12 days) was 14.02 +/− 1.56 and the “AUC (3-7 day)” value (DSS-induced colitis; 3 mg/kg p.o. b.i.d. 12 days) was 4.93 +/− 0.38**. The “AUC (7-10 day)” value (DSS-induced colitis; 3 mg/kg p.o. b.i.d. 12 days) was 5.05 +/− 0.75, the “AUC (10-12 day)” value (DSS-induced colitis; 3 mg/kg p.o. b.i.d. 12 days) was 2.73 +/− 0.55 and the “AUC (0-12 day)” value (DSS-induced colitis; 10 mg/kg p.o. b.i.d. 12 days) was 11.25 +/− 1.42**. For the same compound, the “AUC (3-7 day)” value (DSS-induced colitis; 10 mg/kg p.o. b.i.d. 12 days) was 4.60 +/− 0.40**, the “AUC (7-10 day)” value (DSS-induced colitis; 10 mg/kg p.o. b.i.d. 12 days) was 3.70 +/− 0.62* and the “AUC (10-12 day)” value (DSS-induced colitis; 10 mg/kg p.o. b.i.d. 12 days) was 1.70 +/− 0.37. For the same compound, the “AUC (0-12 day)” value (DSS-induced colitis; 30 mg/kg p.o. b.i.d. 12 days) was 11.70 +/− 1.32*, the “AUC (3-7 day)” value (DSS-induced colitis; 30 mg/kg p.o. b.i.d. 12 days) was 4.70 +/− 0.36** and the “AUC (7-10 day)” value (DSS-induced colitis; 30 mg/kg p.o. b.i.d. 12 days) was 3.94 +/− 0.62. For the same compound, the “AUC (10-12 day)” value (DSS-induced colitis; 30 mg/kg p.o. b.i.d. 12 days) was 1.67 +/− 0.44, the inhibition at 3 mg/kg (DSS-induced colitis; [1]) was 22% and the inhibition at 3 mg/kg (DSS-induced colitis; [2]) was 28.2%. It also gave an inhibition at 3 mg/kg (DSS-induced colitis; [3]) of 20.5%, an inhibition at 3 mg/kg (DSS-induced colitis; [4]) of 14.7% and an inhibition at 10 mg/kg (DSS-induced colitis; [1]) of 37.4%. It also gave an inhibition at 10 mg/kg (DSS-induced colitis; [2]) of 33%, an inhibition at 10 mg/kg (DSS-induced colitis; [3]) of 41.7% and an inhibition at 10 mg/kg (DSS-induced colitis; [4]) of 46.9%. For the same compound, the inhibition at 30 mg/kg (DSS-induced colitis; [1]) was 34.9%, the inhibition at 30 mg/kg (DSS-induced colitis; [2]) was 31.6% and the inhibition at 30 mg/kg (DSS-induced colitis; [3]) was 38%. The inhibition at 30 mg/kg (DSS-induced colitis; [4]) was 47.8%.
In the case of `O=S(=O)(c1ccccc1)N(CC(F)(F)F)c1ccc(C(O)(C(F)(F)F)C(F)(F)F)cc1` [Compound Ia], the “severity of DSS-induced colitis” value (DSS-induced colitis; 50 mg/kg, q.d., significant lower AUC (3-7 day) and AUC (0-12 day) compared with vehicle-treated DSS-fed mice) is reported as “inhibited the severity of DSS-induced colitis”, the “AUC (0-12 day)” value (DSS-induced colitis; 50 mg/kg p.o. q.d. 12 days) is reported as 12.33 +/− 1.40* and the “AUC (3-7 day)” value (DSS-induced colitis; 50 mg/kg p.o. q.d. 12 days) is reported as 4.80 +/− 0.38**. The “AUC (7-10 day)” value (DSS-induced colitis; 50 mg/kg p.o. q.d. 12 days) was 4.25 +/− 0.72 and the “AUC (10-12 day)” value (DSS-induced colitis; 50 mg/kg p.o. q.d. 12 days) was 1.98 +/− 0.45.
